In US9730447B2, “Fungicidal amides” (E I DU PONT DE NEMOURS AND COMPANY, priority 2013, dated 2017):

Key:
[1] = system: Botrytis cinerea; assay: Test A: preventive spray on tomato seedlings, Botrytis cinerea (gray mold), visual disease rating; assay type: in vivo; conditions: 96 h, 100 = 100% disease control, 0 = no control relative to controls, unmarked values
In short: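 Tomato seedlings sprayed to run-off with 40 ppm or 10 ppm suspensions (160 or 40 g ai/ha) in acetone/water with 250 ppm surfactant. Inoculated with B. cinerea spores next day, held saturated at 20 °C for 48 h, then 27 °C for 2 days. Visual rating, 0–100% disease control relative to controls.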

| SMILES | pest or weed control at 40 µg/mL, 160 g/ha [1] [%] | melting point [°C] |
| --- | --- | --- |
| Cn1cc(C(=O)Nc2ccccc2-c2ccc(-n3ccc(C(F)(F)F)n3)nc2)c(C(F)F)n1 [Compound 51, 3-(difluoromethyl)-N-[2-[6-[3-(trifluoromethyl)-1H-pyrazol-1-yl]-3-pyridinyl]phenyl]-1-methyl-1H-pyrazole-4-carboxamide] | 97 | 157 to 159 |
| Cn1cc(C(=O)Nc2ccccc2-c2ccc(-n3ccc(C(F)(F)F)n3)nn2)c(C(F)F)n1 [Compound 54, 3-(difluoromethyl)-1-methyl-N-[2-[6-[3-(trifluoromethyl)-1H-pyrazol-1-yl]-3-pyridazinyl]phenyl]-1H-pyrazole-4-carboxamide] | 0 | 248 to 250 |
| O=C(Nc1ccccc1-c1cnc(-n2ccc(C(F)(F)F)n2)nc1)c1ncccc1C(F)(F)F [Compound 56, 3-(trifluoromethyl)-N-[2-[2-[3-(trifluoromethyl)-1H-pyrazol-1-yl]-5-pyrimidinyl]phenyl]-2-pyridinecarboxamide] | 16 | 178 to 180 |
| Cn1cc(C(=O)Nc2ccccc2-c2cnc(-n3ccc(C(F)(F)F)n3)nc2)c(C(F)F)n1 [Compound 58, 3-(difluoromethyl)-1-methyl-N-[2-[2-[3-(trifluoromethyl)-1H-pyrazol-1-yl]-5-pyrimidinyl]phenyl]-1H-pyrazole-4-carboxamide] | 0 | 167 to 169 |
